Measurements as given in patent publication US8129366B2, “VLA-4 inhibitory drug” (Daiichi Sankyo Company, Limited, priority 2005, dated 2012).

Target: T1, hα4 and β1 integrins (Homo sapiens, UniProt P05556+P13612)
T1 construct: expressed in transfected cells; host or cells: CHO cells
Assay: In vitro inhibition of binding between CHO cells expressing hα4 and β1 integrins and Eu3+-hVCAM-1 D1D7-IgG
Conditions: for Ki: CHO cells expressing hα4 and β1 integrins, Eu3+-hVCAM-1 D1D7-IgG ligand, without HSA; for IC50: in the presence of 3% human serum albumin (HSA final concentration 3%)
Outline: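 Transfected CHO cells, cultured 2 days, were incubated with compound and Eu³⁺-hVCAM-1 D1D7-IgG (diluted to 2 nM) for 1 h at room temperature. Buffer was 25 mM HEPES pH 7.5 with 1 mM Ca²⁺, 1 mM Mg²⁺, 4 mM Mn²⁺ and 0.1% BSA, ±3% HSA final. Cells were washed at 4 °C and read by DELFIA time-resolved fluorescence; Ki was derived from IC50 using the Scatchard Kd.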

T1 sequence (P13612 34-1032): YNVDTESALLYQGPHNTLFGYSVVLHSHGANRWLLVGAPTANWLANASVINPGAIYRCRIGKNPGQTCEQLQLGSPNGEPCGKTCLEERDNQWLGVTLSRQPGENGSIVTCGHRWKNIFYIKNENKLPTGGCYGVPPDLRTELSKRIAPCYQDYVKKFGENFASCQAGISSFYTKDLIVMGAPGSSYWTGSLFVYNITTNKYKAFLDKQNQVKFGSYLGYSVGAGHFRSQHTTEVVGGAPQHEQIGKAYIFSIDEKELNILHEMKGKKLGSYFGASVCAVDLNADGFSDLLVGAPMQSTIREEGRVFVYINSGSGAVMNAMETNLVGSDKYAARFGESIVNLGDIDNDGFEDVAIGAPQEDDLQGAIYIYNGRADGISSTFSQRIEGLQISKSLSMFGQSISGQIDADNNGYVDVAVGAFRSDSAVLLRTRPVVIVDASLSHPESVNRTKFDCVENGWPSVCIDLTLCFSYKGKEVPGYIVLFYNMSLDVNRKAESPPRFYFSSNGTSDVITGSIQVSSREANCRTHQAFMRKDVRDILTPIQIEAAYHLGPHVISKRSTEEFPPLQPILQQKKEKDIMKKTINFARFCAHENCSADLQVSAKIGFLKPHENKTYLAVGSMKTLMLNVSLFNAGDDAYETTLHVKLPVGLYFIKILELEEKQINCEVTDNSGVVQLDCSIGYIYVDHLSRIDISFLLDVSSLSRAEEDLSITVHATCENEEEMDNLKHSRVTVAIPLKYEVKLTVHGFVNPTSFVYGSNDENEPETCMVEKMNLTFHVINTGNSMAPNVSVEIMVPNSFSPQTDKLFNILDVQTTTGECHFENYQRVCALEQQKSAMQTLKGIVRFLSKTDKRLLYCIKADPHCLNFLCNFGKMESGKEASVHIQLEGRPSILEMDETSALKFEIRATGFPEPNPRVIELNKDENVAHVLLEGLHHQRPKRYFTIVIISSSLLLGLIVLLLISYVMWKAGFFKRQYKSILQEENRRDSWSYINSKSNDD
T1 sequence (P05556 21-798): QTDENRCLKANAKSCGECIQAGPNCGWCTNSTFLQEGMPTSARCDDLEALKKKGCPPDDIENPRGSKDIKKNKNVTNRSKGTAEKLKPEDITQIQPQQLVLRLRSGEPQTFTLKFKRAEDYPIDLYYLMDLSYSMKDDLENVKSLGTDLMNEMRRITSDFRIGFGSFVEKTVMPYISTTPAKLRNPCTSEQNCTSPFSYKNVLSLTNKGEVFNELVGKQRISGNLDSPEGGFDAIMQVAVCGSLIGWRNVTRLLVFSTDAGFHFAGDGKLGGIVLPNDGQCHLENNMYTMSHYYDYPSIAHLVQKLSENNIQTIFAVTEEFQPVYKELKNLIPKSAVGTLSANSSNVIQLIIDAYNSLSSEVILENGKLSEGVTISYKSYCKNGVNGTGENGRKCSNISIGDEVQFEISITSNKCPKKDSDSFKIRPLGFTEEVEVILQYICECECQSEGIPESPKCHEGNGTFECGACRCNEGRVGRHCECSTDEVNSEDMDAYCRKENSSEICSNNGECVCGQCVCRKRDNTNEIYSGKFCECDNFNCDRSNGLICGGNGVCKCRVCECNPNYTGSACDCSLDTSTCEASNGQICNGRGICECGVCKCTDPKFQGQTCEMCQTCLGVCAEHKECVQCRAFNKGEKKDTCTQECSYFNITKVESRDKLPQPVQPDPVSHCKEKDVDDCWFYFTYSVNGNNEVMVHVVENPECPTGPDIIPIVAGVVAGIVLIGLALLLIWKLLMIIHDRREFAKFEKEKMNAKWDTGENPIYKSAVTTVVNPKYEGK

Ki [nM] | IC50 [nM] | SMILES
2.4 | 9.9 | Cn1cc(C(=O)Nc2cc(F)c(CC(=O)N3C[C@@H](N4CCS(=O)(=O)CC4)C[C@H]3CO[C@H]3CC[C@H](C(=O)O)CC3)cc2Cl)c2ccccc21 [Example 160, Trans-4-[1-[[5-chloro-2-fluoro-4-[(1-methyl-1H-indol-3-ylcarbonyl)amino]phenyl]acetyl]-(4S)-(1,1-dioxo-1λ^6-thiomorpholin-4-yl)-(2S)-pyrrolidinylmethoxy]cyclohexanecarboxylic acid]
4.2 | 26 | CN(C)S(=O)(=O)N1CCN([C@H]2C[C@@H](CO[C@H]3CC[C@H](C(=O)O)CC3)N(C(=O)Cc3cc(Cl)c(NC(=O)c4cn(C)c5ccccc45)cc3Cl)C2)CC1 [Example 151, Trans-4-[1-[[2,5-dichloro-4-[(1-methyl-1H-indol-3-ylcarbonyl)amino]phenyl]acetyl]-(4S)-(4-N,N-dimethylsulfamoylpiperazin-1-yl)-(2S)-pyrrolidinylmethoxy]cyclohexanecarboxylic acid]
1.6 | 6.8 | CS(=O)(=O)N1CCN([C@H]2C[C@@H](CO[C@H]3CC[C@H](C(=O)O)CC3)N(C(=O)Cc3cc(Cl)c(NC(=O)c4coc5ccccc45)cc3F)C2)CC1 [Example 150, Trans-4-[1-[[4-[(benzo[b]furan-3-ylcarbonyl)amino]-5-chloro-2-fluorophenyl]acetyl]-(4S)-(4-methanesulfonylpiperazin-1-yl)-(2S)-pyrrolidinylmethoxy]cyclohexanecarboxylic acid]
4.9 | 13 | COC1CCN([C@H]2C[C@@H](CC[C@H]3CC[C@H](C(=O)O)CC3)N(C(=O)Cc3cc(Cl)c(NC(=O)c4cn(C)c5ccccc45)cc3Cl)C2)CC1 [Example 104, Trans-4-[2-[1-[[2,5-dichloro-4-[(1-methyl-1H-indol-3-ylcarbonyl)amino]phenyl]acetyl]-(4S)-(4-methoxypiperidin-1-yl)-(2S)-pyrrolidinyl]ethyl]cyclohexanecarboxylic acid]
2.4 | 13 | O=C(Nc1cc(F)c(CC(=O)N2C[C@@H](N3CCN(CC(F)(F)F)CC3)C[C@H]2CO[C@H]2CC[C@H](C(=O)O)CC2)cc1Cl)c1coc2ccccc12 [Example 126, Trans-4-[1-[[4-[(benzo[b]furan-3-ylcarbonyl)amino]-5-chloro-2-fluorophenyl]acetyl]-(4S)-[4-(2,2,2-trifluoroethyl)piperazin-1-yl]-(2S)-pyrrolidinylmethoxy]cyclohexanecarboxylic acid]
0.93 | 1.9 | O=C(Nc1cc(Cl)c(CC(=O)N2C[C@@H](N3CCN(CC(F)(F)F)CC3)C[C@H]2CO[C@H]2CC[C@H](C(=O)O)CC2)cc1Cl)c1c[nH]c2ccccc12 [Example 129, Trans-4-[1-[[2,5-dichloro-4-[(1H-indol-3-ylcarbonyl)amino]phenyl]acetyl]-(4S)-[4-(2,2,2-trifluoroethyl)piperazin-1-yl]-(2S)-pyrrolidinylmethoxy]cyclohexanecarboxylic acid]
7.7 | 64 | O=C(Nc1cc(F)c(CC(=O)N2C[C@@H](N3CC(CF)C3)C[C@H]2CO[C@H]2CC[C@H](C(=O)O)CC2)cc1Cl)c1coc2ccccc12 [Example 13, Trans-4-[1-[[4-[(benzo[b]furan-3-ylcarbonyl)amino]-5-chloro-2-fluorophenyl]acetyl]-(4S)-[3-(fluoromethyl)azetidin-1-yl]-(2S)-pyrrolidinylmethoxy]cyclohexanecarboxylic acid]
7.5 | 28 | O=C(Nc1cc(F)c(CC(=O)N2C[C@@H](N3C[C@H]4C[C@H]4C3)C[C@H]2CO[C@H]2CC[C@H](C(=O)O)CC2)cc1Cl)c1csc2ccccc12 [Example 71, Trans-4-[1-[[4-[(benzo[b]thiophen-3-ylcarbonyl)amino]-5-chloro-2-fluorophenyl]acetyl]-(4S)-[3-azabicyclo[3.1.0]hexan-3-yl]-(2S)-pyrrolidinylmethoxy]cyclohexanecarboxylic acid]
3.5 | 21 | CC1CN([C@H]2C[C@@H](CO[C@H]3CC[C@H](C(=O)O)CC3)N(C(=O)Cc3cc(Cl)c(NC(=O)c4coc5ccccc45)cc3F)C2)C1 [Example 11, Trans-4-[1-[[4-[(benzo[b]furan-3-ylcarbonyl)amino]-5-chloro-2-fluorophenyl]acetyl]-(4S)-(3-methylazetidin-1-yl)-(2S)-pyrrolidinylmethoxy]cyclohexanecarboxylic acid]
2.1 | 10 | CN1CCN([C@H]2C[C@@H](CO[C@H]3CC[C@H](C(=O)O)CC3)N(C(=O)Cc3cc(Cl)c(NC(=O)c4coc5ccccc45)cc3Cl)C2)CC1=O [Example 155, Trans-4-[1-[[4-[(benzo[b]furan-3-ylcarbonyl)amino]-2,5-dichlorophenyl]acetyl]-(4S)-(4-methyl-3-oxopiperazin-1-yl)-(2S)-pyrrolidinylmethoxy]cyclohexanecarboxylic acid]
4 | 16 | Cn1cc(C(=O)Nc2cc(F)c(CC(=O)N3C[C@@H](N4CCSCC4)C[C@H]3CO[C@H]3CC[C@H](C(=O)O)CC3)cc2Cl)c2ccccc21 [Example 158, Trans-4-[1-[[5-chloro-2-fluoro-4-[(1-methyl-1H-indol-3-ylcarbonyl)amino]phenyl]acetyl]-(4S)-(thiomorpholin-4-yl)-(2S)-pyrrolidinylmethoxy]cyclohexanecarboxylic acid]
1.2 | 10 | C[C@@H]1CN([C@H]2C[C@@H](CO[C@H]3CC[C@H](C(=O)O)CC3)N(C(=O)Cc3ccc(NC(=O)c4csc5ccccc45)c(Cl)c3)C2)C[C@H](C)O1 [Example 92, Trans-4-[1-[[4-[(benzo[b]thiophen-3-ylcarbonyl)amino]-3-chlorophenyl]acetyl]-(4S)-(cis-2,6-dimethylmorpholin-4-yl)-(2S)-pyrrolidinylmethoxy]cyclohexanecarboxylic acid]
2 | 9.4 | O=C(Nc1cc(F)c(CC(=O)N2C[C@@H](N3CCCOCC3)C[C@H]2CO[C@H]2CC[C@H](C(=O)O)CC2)cc1Cl)c1coc2ccccc12 [Example 168, Trans-4-[1-[[4-[(benzo[b]furan-3-ylcarbonyl)amino]-5-chloro-2-fluorophenyl]acetyl]-(4S)-([1,4]-oxazepan-4-yl)-(2-S)-pyrrolidinylmethoxy]cyclohexanecarboxylic acid]
2.6 | 11 | CS(=O)(=O)N1CCCN([C@H]2C[C@@H](CO[C@H]3CC[C@H](C(=O)O)CC3)N(C(=O)Cc3cc(Cl)c(NC(=O)c4coc5ccccc45)cc3F)C2)CC1 [Example 170, Trans-4-[1-[[4-[(benzo[b]furan-3-ylcarbonyl)amino]-5-chloro-2-fluorophenyl]acetyl]-(4S)-(4-methanesulfonyl[1,4]-diazepan-1-yl)-(2S)-pyrrolidinylmethoxy]cyclohexanecarboxylic acid]
1.7 | 24 | O=C(Nc1cc(F)c(CC(=O)N2C[C@@H](N3CCC(F)(F)C3)C[C@H]2CO[C@H]2CC[C@H](C(=O)O)CC2)cc1Cl)c1csc2ccccc12 [Example 38, Trans-4-[1-[[4-[(benzo[b]thiophen-3-ylcarbonyl)amino]-5-chloro-2-fluorophenyl]acetyl]-(4S)-(3,3-difluoropyrrolidin-1-yl)-(2S)-pyrrolidinylmethoxy]cyclohexanecarboxylic acid]
14 | 15 | COC[C@@H]1C[C@H](F)CN1[C@H]1C[C@@H](CO[C@H]2CC[C@H](C(=O)O)CC2)N(C(=O)Cc2cc(Cl)c(NC(=O)c3cn(C)c4ccccc34)cc2Cl)C1 [Example 45, Trans-4-[1-[[2,5-dichloro-4-[(1-methyl-1H-indol-3-ylcarbonyl)amino]phenyl]acetyl]-(4S)-[(4S)-fluoro-(2S)-methoxymethylpyrrolidin-1-yl]-(2S)-pyrrolidinylmethoxy]cyclohexane carboxylic acid]
4 | 62 | COC[C@H]1CC[C@H](COC)N1[C@H]1C[C@@H](CO[C@H]2CC[C@H](C(=O)O)CC2)N(C(=O)Cc2cc(Cl)c(NC(=O)c3csc4ccccc34)cc2F)C1 [Example 49]
1.4 | 6.2 | CO[C@H]1CN([C@H]2C[C@@H](CO[C@H]3CC[C@H](C(=O)O)CC3)N(C(=O)Cc3cc(Cl)c(NC(=O)c4csc5ccccc45)cc3F)C2)C[C@H]1OC [Example 57, Trans-4-[1-[[4-[(benzo[b]thiophen-3-ylcarbonyl)amino]-5-chloro-2-fluorophenyl]acetyl]-(4S)-(cis-3,4-dimethoxypyrrolidin-1-yl)-(2S)-pyrrolidinylmethoxy]cyclohexanecarboxylic acid]
1.2 | 33 | O=C(Nc1cc(F)c(CC(=O)N2C[C@@H](N3CCC(Oc4ccccc4)CC3)C[C@H]2CO[C@H]2CC[C@H](C(=O)O)CC2)cc1Cl)c1csc2ccccc12 [Example 102]
4.5 | 20 | Cn1cc(C(=O)Nc2cc(Cl)c(CC(=O)N3C[C@@H](N4CCN(C(C)(C)CF)CC4)C[C@H]3CO[C@H]3CC[C@H](C(=O)O)CC3)cc2Cl)c2ccccc21 [Example 119, Trans-4-[1-[[2,5-dichloro-4-[(1-methyl-1H-indol-3-ylcarbonyl)amino]phenyl]acetyl]-(4S)-[4-(1,1-dimethyl-2-fluoroethyl)piperazin-1-yl]-(2S)-pyrrolidinylmethoxy]cyclohexanecarboxylic acid]
0.64 | 4.9 | O=C(Nc1cc(F)c(CC(=O)N2C[C@@H](N3CCC4(CC4)C3)C[C@H]2CO[C@H]2CC[C@H](C(=O)O)CC2)cc1Cl)c1csc2ccccc12 [Example 39, Trans-4-[(4S)-(5-azaspiro[2.4]heptan-5-yl)-1-[[4-[(benzo[b]thiophen-3-ylcarbonyl)amino]-5-chloro-2-fluorophenyl]acetyl]-(2S)-pyrrolidinylmethoxy]cyclohexanecarboxylic acid]
